Measured values published in US7786134B2, “Lipophilic anticancer drug compounds, compositions and related methods” (Sonus Pharmaceuticals, Inc., priority 2005, dated 2010).
Where two headings read alike, the source gives them in different places.

Experiments:
[1] = test system: H460 (non-small cell lung); assay: In vitro cytotoxicity (GI50), Sulforhodamine B staining, H460; assay type: cell-based; settings: H460 cells, 48 hours contact, read-out: Concentration that produce 50% cell growth inhibition (GI50) H460 (NSCLC)
Protocol: (§1) The study was performed using a solution of the lipophilic anticancer drug compounds in DMSO (1 mM) diluted in the corresponding cell media. The cells were in contact with varying concentrations of the test article for a period of 48 hours. At the end of 48 hours, staining with Sulforhodamine B was performed to determine the number of viable cells and calculate the degree of cellular growth inhibition as compared to a control group.

HCT-15 (colorectal) [2] = assay: In vitro cytotoxicity (GI50), Sulforhodamine B staining, HCT-15; assay type: cell-based; settings: HCT-15 cells, 48 hours contact, read-out: Concentration that produce 50% cell growth inhibition (GI50) HCT-15 (COLON)
Protocol: as §1

HCT-116 (COLON) [3] = assay: In vitro cytotoxicity (GI50), Sulforhodamine B staining, HCT-116; assay type: cell-based; settings: HCT-116 cells, 48 hours contact, read-out: Concentration that produce 50% cell growth inhibition (GI50) HCT-116 (COLON)
Protocol: as §1

SKOV-3 (ovarian) [4] = assay: In vitro cytotoxicity (GI50), Sulforhodamine B staining, SKOV-3; assay type: cell-based; settings: SKOV-3 cells, 48 hours contact, read-out: Concentration that produce 50% cell growth inhibition (GI50) SKOV-3 (OVARIAN)
Protocol: as §1

HCT-116 (COLON) [5] = settings: HCT-116 cells, National Cancer Institute (NCI) GI50 values; read-out: Concentration that produce 50% cell growth inhibition (GI50) HCT-116 (COLON); cited from earlier work
[6] = test system: H460 (non-small cell lung); settings: H460 cells, National Cancer Institute (NCI) GI50 values; read-out: Concentration that produce 50% cell growth inhibition (GI50) H460 (NSCLC); cited from earlier work
SKOV-3 (ovarian) [7] = settings: SKOV-3 cells, National Cancer Institute (NCI) GI50 values; read-out: Concentration that produce 50% cell growth inhibition (GI50) SKOV-3 (OVARIAN); cited from earlier work
HCT-15 (colorectal) [8] = settings: HCT-15 cells, National Cancer Institute (NCI) GI50 values; read-out: Concentration that produce 50% cell growth inhibition (GI50) HCT-15 (COLON); cited from earlier work

With `CCc1c2c(nc3ccc(OC(=O)CCC(=O)OCc4c(C)c(C)c(C)c(C)c4C)cc13)-c1cc3c(c(=O)n1C2)COC(=O)C3(O)CC` (centres unmarked) [10-(2,3,4,5,6-pentamethylbenzyl succinate)-7-ethylcamptothecin] the GI50 [1] was 3.82 nM, the GI50 (HCT-15 (colorectal) [2]) was 32.4 nM and the GI50 (HCT-116 (COLON) [3]) was 3.09 nM. It also gave a GI50 (SKOV-3 (ovarian) [4]) of 2.13 nM.

With `CCc1c2c(nc3ccc(OC(=O)NC(C)(C)C)cc13)-c1cc3c(c(=O)n1C2)COC(=O)C3(O)CC` (centres unmarked) [10-(N-t-butyl carbamate)-7-ethylcamptothecin] the GI50 [1] was 5.75 nM, the GI50 (HCT-15 (colorectal) [2]) was 158 nM and the GI50 (HCT-116 (COLON) [3]) was 15.1 nM. For the same molecule, the GI50 (SKOV-3 (ovarian) [4]) was 1.29 nM.

Work on `CCc1c2c(nc3ccc(OC(=O)CCC(=O)OCc4ccccc4)cc13)-c1cc3c(c(=O)n1C2)COC(=O)C3(O)CC` (centres unmarked) [10-(benzyl succinate)-7-ethylcamptothecin] yielded a GI50 [1] of 0.372 nM, a GI50 (HCT-15 (colorectal) [2]) of 50.1 nM and a GI50 (HCT-116 (COLON) [3]) of 10.7 nM. It also gave a GI50 (SKOV-3 (ovarian) [4]) of 1.29 nM.

In the case of `CCc1c2c(nc3ccc(OCc4ccccc4)cc13)-c1cc3c(c(=O)n1C2)COC(=O)[C@]3(O)CC` [10-benzyloxy-7-ethylcamptothecin], the GI50 [1] was 0.32 nM, the GI50 (HCT-15 (colorectal) [2]) was 5.66 nM and the GI50 (HCT-116 (COLON) [3]) was 4.52 nM. The GI50 (SKOV-3 (ovarian) [4]) was 15 nM.

For “10-(N-n-butyl carbamate)-7-ethylcamptothecin”, the GI50 [1] was 1.2 nM, the GI50 (HCT-15 (colorectal) [2]) was 44.7 nM and the GI50 (HCT-116 (COLON) [3]) was 1.1 nM. It also gave a GI50 (SKOV-3 (ovarian) [4]) of 0.398 nM.

For `CCc1c2c(nc3ccc(OC(=O)N4CCC(N5CCCCC5)CC4)cc13)-c1cc3c(c(=O)n1C2)COC(=O)[C@]3(O)CC` [Irrinotecan, irinotecan], the GI50 (HCT-116 (COLON) [5]) is listed as 7900 nM and the GI50 [6] is listed as 5100 nM.

For `CC[C@@]1(O)C(=O)OCc2c1cc1n(c2=O)Cc2cc3ccccc3nc2-1` [Camptothecin], the GI50 (HCT-116 (COLON) [5]) is given as 40 nM, the GI50 [6] is given as 16 nM and the GI50 (SKOV-3 (ovarian) [7]) is given as 25 nM. The GI50 (HCT-15 (colorectal) [8]) was 160 nM.

For `CCC1(OC(=O)CCC(=O)OCc2ccccc2)C(=O)OCc2c1cc1n(c2=O)Cc2cc3ccccc3nc2-1` (centres unmarked) [20-(benzyl succinate)camptothecin], the GI50 [1] was 380 nM, the GI50 (HCT-15 (colorectal) [2]) was 1300 nM and the GI50 (HCT-116 (COLON) [3]) was 630 nM. It also gave a GI50 (SKOV-3 (ovarian) [4]) of 562 nM.

For `CC[C@@]1(O)C(=O)OCc2c1cc1n(c2=O)Cc2cc3cc(O)ccc3nc2-1` [10-hydroxycamptothecin], the GI50 (HCT-116 (COLON) [5]) is listed as 27 nM, the GI50 [6] is listed as 11 nM and the GI50 (HCT-15 (colorectal) [8]) is listed as 356 nM.

For `CCc1c2c(nc3ccc(O)cc13)-c1cc3c(c(=O)n1C2)COC(=O)[C@]3(O)CC` [7-ethyl-10hydroxycamptothecin, 7-ethyl-10-hydroxycamptothecin], the GI50 (HCT-116 (COLON) [5]) is given as 21 nM, the GI50 [6] is given as 1.4 nM and the GI50 (SKOV-3 (ovarian) [7]) is given as 1 nM. For the same molecule, the GI50 (HCT-15 (colorectal) [8]) was 7.9 nM.

With “10-(n-butyl carbonoyloxy)-7-ethylcamptothecin” the GI50 [1] was 2.95 nM, the GI50 (HCT-15 (colorectal) [2]) was 120 nM and the GI50 (HCT-116 (COLON) [3]) was 0.58 nM. For the same molecule, the GI50 (SKOV-3 (ovarian) [4]) was 0.275 nM.

In the case of `CC[C@@]1(O)C(=O)OCc2c1cc1n(c2=O)Cc2cc3c(CN(C)C)c(O)ccc3nc2-1` [Topotecan, topotecan], the GI50 (HCT-116 (COLON) [5]) is given as 39.8 nM, the GI50 [6] is given as 19.9 nM and the GI50 (HCT-15 (colorectal) [8]) is given as 501 nM.

`CCc1c2c(nc3ccc(OC(=O)CCC(=O)OCc4ccc(C)cc4)cc13)-c1cc3c(c(=O)n1C2)COC(=O)C3(O)CC` (centres unmarked) [10-(4-methylbenzyl succinate)-7-ethylcamptothecin] showed a GI50 [1] of 5.37 nM, a GI50 (HCT-15 (colorectal) [2]) of 75.4 nM and a GI50 (HCT-116 (COLON) [3]) of 2.29 nM. The GI50 (SKOV-3 (ovarian) [4]) was 6.16 nM.

In the case of `CCc1c2c(nc3ccc(OC(=O)CC4(CC(=O)OCc5ccccc5)CCCC4)cc13)-c1cc3c(c(=O)n1C2)COC(=O)[C@]3(O)CC` [10-(benzyl 3,3-tetramethyleneglutarate)-7-ethylcamptothecin], the GI50 [1] was 8.91 nM, the GI50 (HCT-15 (colorectal) [2]) was 85.1 nM and the GI50 (HCT-116 (COLON) [3]) was 3.49 nM. It also gave a GI50 (SKOV-3 (ovarian) [4]) of 2.95 nM.

`CCCCCCCCOC(=O)CCC(=O)OC1(CC)C(=O)OCc2c1cc1n(c2=O)Cc2cc3ccccc3nc2-1` (centres unmarked) [20-(1-octyl succinate)camptothecin] showed a GI50 [1] of 165 nM, a GI50 (HCT-15 (colorectal) [2]) of 354 nM and a GI50 (HCT-116 (COLON) [3]) of 766 nM. It also gave a GI50 (SKOV-3 (ovarian) [4]) of 2420 nM.

`CCCCOc1ccc(C(=O)Oc2ccc3nc4c(c(CC)c3c2)Cn2c-4cc3c(c2=O)COC(=O)C3(O)CC)cc1` (centres unmarked) [10-(4-butoxybenzoyloxy)-7-ethylcamptothecin] showed a GI50 [1] of 28.2 nM, a GI50 (HCT-15 (colorectal) [2]) of 141 nM and a GI50 (HCT-116 (COLON) [3]) of 5.62 nM. It also gave a GI50 (SKOV-3 (ovarian) [4]) of 5.5 nM.

Molecule `CCc1c2c(nc3ccc(OC(=O)CCC(=O)OCc4c(C)cc(C)cc4C)cc13)-c1cc3c(c(=O)n1C2)COC(=O)C3(O)CC` (centres unmarked) [10-(2,4,6-trimethylbenzyl succinate)-7-ethylcamptothecin] has a GI50 [1] of 5.12 nM, a GI50 (HCT-15 (colorectal) [2]) of 31.6 nM and a GI50 (HCT-116 (COLON) [3]) of 3.54 nM. The GI50 (SKOV-3 (ovarian) [4]) was 3.67 nM.

Molecule `CCCCCCCCOC(=O)CCC(=O)Oc1ccc2nc3c(c(CC)c2c1)Cn1c-3cc2c(c1=O)COC(=O)C2(O)CC` (centres unmarked) [10-(1-octyl succinate)-7-ethylcamptothecin] has a GI50 [1] of 2460 nM, a GI50 (HCT-15 (colorectal) [2]) of 661 nM and a GI50 (HCT-116 (COLON) [3]) of 9.75 nM. The GI50 (SKOV-3 (ovarian) [4]) was 3.46 nM.
